# Reference: patent publication US10689377B2 (Mirati Therapeutics, Inc., priority 2017, dated 2020)
# Biological target: KRas G12C (Homo sapiens, UniProt P01116, G12C)
# Assay: Cellular inhibition of KRas G12C measured by Phospho-ERK in NCI-H358 cells
# Format: cell-based
# Conditions: pERK(Thr202/Tyr204) normalized with GAPDH, NCI-H358 cells, 3 hours; read-out: IC50
# Method in brief: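 Following 8-12 h attachment, NCI-H358 cells got serially diluted compound (0.5% DMSO) for 3 hours. Cells were then fixed, permeabilized with cold methanol, and stained for pERK(Thr202/Tyr204) and GAPDH. Ratios were converted to percent of DMSO control, with IC50 obtained by four-parameter regression.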
# Chain of KRas G12C (P01116 1-188 isoform P01116-2 G12C): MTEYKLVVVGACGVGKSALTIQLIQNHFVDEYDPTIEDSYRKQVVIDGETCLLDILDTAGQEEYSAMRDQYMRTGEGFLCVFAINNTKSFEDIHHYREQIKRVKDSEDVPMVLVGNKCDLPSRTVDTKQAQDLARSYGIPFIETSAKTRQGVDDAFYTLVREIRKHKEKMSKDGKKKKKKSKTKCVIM
row,Structure (SMILES),IC50 [nM]
1,"Cc1cccc2cccc(N3CCc4c(nc(OC[C@@H]5CC(F)(F)CN5C)nc4N4CCN(C(=O)/C=C/CN5CC(F)C5)[C@@H](CC#N)C4)C3)c12 [Example 520, 2-[(2S)-4-[2-[[(2S)-4,4-difluoro-1-methyl-pyrrolidin-2-yl]methoxy]-7-(8-methyl-1-naphthyl)-6,8-dihydro-5H-pyrido[3,4-d]pyrimidin-4-yl]-1-[(E)-4-(3-fluoroazetidin-1-yl)but-2-enoyl]piperazin-2-yl]acetonitrile]",0.1 to 1000
2,"C=C(F)C(=O)N1CCN(c2nc(OC[C@@H]3CCCN3C)nc3c2CCN(c2c(C)c(C)cc4[nH]ncc24)C3)C[C@@H]1CC#N [Example 521, 2-[(2S)-4-[7-(5,6-dimethyl-1H-indazol-4-yl)-2-[[(2S)-1-methylpyrrolidin-2-yl]methoxy]-6,8-dihydro-5H-pyrido[3,4-d]pyrimidin-4-yl]-1-(2-fluoroprop-2-enoyl)piperazin-2-yl]acetonitrile]",0.1 to 1000
3,"Cc1cccc2cccc(N3CCc4c(nc(OC[C@@H]5CCCN5C)nc4N4CCN(C(=O)/C=C/c5ccncc5)[C@@H](CC#N)C4)C3)c12 [Example 526, 2-((S)-4-(7-(8-methylnaphthalen-1-yl)-2-(((S)-1-methylpyrrolidin-2-yl)methoxy)-5,6,7,8-tetrahydropyrido[3,4-d]pyrimidin-4-yl)-1-((E)-3-(pyridin-4-yl)acryloyl)piperazin-2-yl)acetonitrile]",0.1 to 1000
4,C=C(F)C(=O)N1CCN(c2nc(OC[C@@H]3CCCN3C)nc3c2CCN(c2c(C(F)(F)F)c(C)cc4[nH]ncc24)C3)C[C@@H]1CC#N [Example 527],0.1 to 1000
5,"CN1CC[C@@H](COc2nc3c(c(N4CCN(C(=O)/C=C/CF)[C@@H](CC#N)C4)n2)CCN(c2cccc4cccc(Cl)c24)C3)C1 [Example 584, 2-[(2S)-4-[7-(8-chloro-1-naphthyl)-2-[[(3R)-1-methylpyrrolidin-3-yl]methoxy]-6,8-dihydro-5H-pyrido[3,4-d]pyrimidin-4-yl]-1-[(E)-4-fluorobut-2-enoyl]piperazin-2-yl]acetonitrile]",0.1 to 1000
6,"C=C(F)C(=O)N1CCN(c2nc(OC[C@@H]3CCCN3C)nc3c2CCN(c2c(C)c(C)cc4[nH]ncc24)C3)C[C@@H]1CC#N [Example 604, 2-[(2S)-4-[7-(5,6-dimethyl-1H-indazol-4-yl)-2-[[(2S)-1-methylpyrrolidin-2-yl]methoxy]-6,8-dihydro-5H-pyrido[3,4-d]pyrimidin-4-yl]-1-(2-fluoroprop-2-enoyl)piperazin-2-yl]acetonitrile]",0.1 to 1000
7,"C=C(F)C(=O)N1CCN(c2nc(OCc3ccccn3)nc3c2CCN(c2cccc4cccc(C)c24)C3)C[C@@H]1CC#N [Example 605, 2-[(2S)-1-(2-fluoroprop-2-enoyl)-4-[7-(8-methyl-1-naphthyl)-2-(2-pyridylmethoxy)-6,8-dihydro-5H-pyrido[3,4-d]pyrimidin-4-yl]piperazin-2-yl]acetonitrile]",> 1000
8,"C=C(F)C(=O)N1CCN(c2nc(OC[C@@H]3C[C@@H](F)CN3C)nc3c2CCN(c2c(C)c(C)cc4[nH]ncc24)C3)C[C@@H]1CC#N [Example 606, 2-((S)-4-(7-(5,6-dimethyl-1H-indazol-4-yl)-2-(((2S,4R)-4-fluoro-1-methylpyrrolidin-2-yl)methoxy)-5,6,7,8-tetrahydropyrido[3,4-d]pyrimidin-4-yl)-1-(2-fluoroacryloyl)piperazin-2-yl)acetonitrile]",0.1 to 1000
9,"C=C(F)C(=O)N1CCN(c2nc(OC[C@@H]3CCCN3C)nc3c2CCN(c2cncc4ccc(C)cc24)C3)C[C@@H]1CC#N [Example 607, 2-((S)-1-(2-fluoroacryloyl)-4-(7-(6-methylisoquinolin-4-yl)-2-(((S)-1-methylpyrrolidin-2-yl)methoxy)-5,6,7,8-tetrahydropyrido[3,4-d]pyrimidin-4-yl)piperazin-2-yl)acetonitrile]",0.1 to 1000

# Next, values leading:
row,IC50 [nM],Structure (SMILES)
1,0.1 to 1000,"Cc1cccc2cccc(N3CCc4c(nc(OC[C@@H]5CCCN5C)nc4N4CCN(C(=O)C#CCO)[C@@H](CC#N)C4)C3)c12 [Example 508, 2-((S)-1-(4-hydroxybut-2-ynoyl)-4-(7-(8-methylnaphthalen-1-yl)-2-(((S)-1-methylpyrrolidin-2-yl)methoxy)-5,6,7,8-tetrahydropyrido[3,4-d]pyrimidin-4-yl)piperazin-2-yl)acetonitrile]"
2,0.1 to 1000,"C=C(F)C(=O)N1CCN(c2nc(OC[C@H]3C[C@@H](F)CN3C)nc3c2CCN(c2cccc4cccc(C)c24)C3)C[C@@H]1CC#N [Example 518, 2-[(2S)-4-[2-[[(2R,4R)-4-fluoro-1-methyl-pyrrolidin-2-yl]methoxy]-7-(8-methyl-1-naphthyl)-6,8-dihydro-5H-pyrido[3,4-d]pyrimidin-4-yl]-1-(2-fluoroprop-2-enoyl)piperazin-2-yl]acetonitrile]"
3,0.1 to 1000,"C=C(F)C(=O)N1CCN(c2nc(OC[C@H]3C[C@@H](OC)CN3C)nc3c2CCN(c2cccc4cccc(C)c24)C3)C[C@@H]1CC#N [Example 519, 2-[(2S)-1-(2-fluoroprop-2-enoyl)-4-[2-[[(2R,4R)-4-methoxy-1-methyl-pyrrolidin-2-yl]methoxy]-7-(8-methyl-1-naphthyl)-6,8-dihydro-5H-pyrido[3,4-d]pyrimidin-4-yl]piperazin-2-yl]acetonitrile]"
4,0.1 to 1000,"Cc1cccc2cccc(N3CCc4c(nc(OC[C@H]5C[C@@H](F)CN5C)nc4N4CCN(C(=O)/C=C/CO)[C@@H](CC#N)C4)C3)c12 [Example 522, 2-((S)-4-(2-(((2R,4R)-4-fluoro-1-methylpyrrolidin-2-yl)methoxy)-7-(8-methylnaphthalen-1-yl)-5,6,7,8-tetrahydropyrido[3,4-d]pyrimidin-4-yl)-1-((E)-4-hydroxybut-2-enoyl)piperazin-2-yl)acetonitrile]"
5,0.1 to 1000,"CO[C@@H]1C[C@H](COc2nc3c(c(N4CCN(C(=O)/C=C/CO)[C@@H](CC#N)C4)n2)CCN(c2cccc4cccc(C)c24)C3)N(C)C1 [Example 523, 2-[(2S)-1-[(E)-4-hydroxybut-2-enoyl]-4-[2-[[(2R,4R)-4-methoxy-1-methyl-pyrrolidin-2-yl]methoxy]-7-(8-methyl-1-naphthyl)-6,8-dihydro-5H-pyrido[3,4-d]pyrimidin-4-yl]piperazin-2-yl]acetonitrile]"
6,0.1 to 1000,"C=C(NC(C)=O)C(=O)N1CCN(c2nc(OC[C@@H]3CCCN3C)nc3c2CCN(c2cccc4cccc(C)c24)C3)C[C@@H]1CC#N [Example 525, N-(3-((S)-2-(cyanomethyl)-4-(7-(8-methylnaphthalen-1-yl)-2-(((S)-1-methylpyrrolidin-2-yl)methoxy)-5,6,7,8-tetrahydropyrido [3,4-d]pyrimidin-4-yl)piperazin-1-yl)-3-oxoprop-1-en-2-yl)acetamide]"
7,> 1000,"C=C(F)C(=O)N1CCN(c2nc(OC[C@@H]3CCC(=O)N3C)nc3c2CCN(c2cccc4cccc(C)c24)C3)C[C@@H]1CC#N [Example 569, 2-[(2S)-1-(2-Fluoroprop-2-enoyl)-4-[7-(8-methyl-1-naphthyl)-2-[[(2S)-1-methyl-5-oxo-pyrrolidin-2-yl]methoxy]-6,8-dihydro-5H-pyrido[3,4-d]pyrimidin-4-yl]piperazin-2-yl]acetonitrile]"
8,> 1000,"C=C(F)C(=O)N1CCN(c2nc(OC[C@@H]3[C@H](O)CC(=O)N3C)nc3c2CCN(c2cccc4cccc(C)c24)C3)C[C@@H]1CC#N [Example 570, 2-[(2S)-1-(2-Fluoroprop-2-enoyl)-4-[2-[[(2R,3R)-3-hydroxy-1-methyl-5-oxo-pyrrolidin-2-yl]methoxy]-7-(8-methyl-1-naphthyl)-6,8-dihydro-5H-pyrido[3,4-d]pyrimidin-4-yl]piperazin-2-yl]acetonitrile]"
9,> 1000,"C=C(F)C(=O)N1CCN(c2nc(OC[C@@H]3[C@H](O)CC(=O)N3C)nc3c2CCN(c2cccc4cccc(Cl)c24)C3)C[C@@H]1CC#N [Example 573, 2-[(2S)-4-[7-(8-Chloro-1-naphthyl)-2-[[(2R,3R)-3-hydroxy-1-methyl-5-oxo-pyrrolidin-2-yl]methoxy]-6,8-dihydro-5H-pyrido[3,4-d]pyrimidin-4-yl]-1-(2-fluoroprop-2-enoyl)piperazin-2-yl]acetonitrile]"
10,0.1 to 1000,"Cc1cccc2cccc(N3CCc4c(nc(OC[C@@H]5CC(F)(F)CN5C)nc4N4CCN(C(=O)/C=C/CF)[C@@H](CC#N)C4)C3)c12 [Example 601, 2-[(2S)-4-[2-[[(2S)-4,4-difluoro-1-methyl-pyrrolidin-2-yl]methoxy]-7-(8-methyl-1-naphthyl)-6,8-dihydro-5H-pyrido[3,4-d]pyrimidin-4-yl]-1-[(E)-4-fluorobut-2-enoyl]piperazin-2-yl]acetonitrile]"
11,0.1 to 1000,"C=C(F)C(=O)N1CCN(c2nc(OC[C@@H]3CCCN3C)nc3c2CCN(c2cccc4ccccc24)C3)C[C@@H]1CC#N [Example 602, 2-[(2S)-1-(2-fluoroprop-2-enoyl)-4-[2-[[(2S)-1-methylpyrrolidin-2-yl]methoxy]-7-(1-naphthyl)-6,8-dihydro-5H-pyrido[3,4-d]pyrimidin-4-yl]piperazin-2-yl]acetonitrile]"
12,> 1000,"C=C(F)C(=O)N1CCN(c2nc(OCC3CCCC3)nc3c2CCN(c2cccc4cccc(C)c24)C3)C[C@@H]1CC#N [Example 603, 2-[(2S)-4-[2-(cyclopentylmethoxy)-7-(8-methyl-1-naphthyl)-6,8-dihydro-5H-pyrido[3,4-d]pyrimidin-4-yl]-1-(2-fluoroprop-2-enoyl)piperazin-2-yl]acetonitrile]"
13,0.1 to 1000,"C=C(F)C(=O)N1CCN(c2nc(OC[C@@H]3CCCN3C)nc3c2CCN(c2cccc4cccc(CC)c24)C3)C[C@@H]1CC#N [Example 608, 2-[(2S)-4-[7-(8-ethyl-1-naphthyl)-2-[[(2S)-1-methylpyrrolidin-2-yl]methoxy]-6,8-dihydro-5H-pyrido[3,4-d]pyrimidin-4-yl]-1-(2-fluoroprop-2-enoyl)piperazin-2-yl]acetonitrile]"
